Holding throughout (format): functional
The subject of experiment [1] is Rattus norvegicus. Nature of the experiment: Estrogen antagonistic activity in immature Rattus norvegicus Sprague-Dawley (rat) assessed as inhibition of ethynylestradiol-induced increase in uterine weight at 10 mg/kg, po qd for 3 days. The conditions noted are these: 72 h.
Experiment [2] has as its system Rattus norvegicus. The experiment can be described thus: Estrogen agonistic activity in immature Rattus norvegicus Sprague-Dawley (rat) assessed as gain in uterine weight at 10 mg/kg, po qd for 3 days.
The subject of experiment [3] is Rattus norvegicus. The experiment can be described thus: Estrogen agonistic activity in immature Rattus norvegicus Sprague-Dawley (rat) assessed as uterine weight at 0.02 mg/kg, po qd for 3 days (reference value: 14 +/- 1.3 to 22.23 +/- 1.2 mg).

Usually inhibition in vivo stands for the drop in the measured response relative to a control, in per cent. Turning to `COc1ccc(C2COc3cc(OCCCC(C)(C)O)ccc3C2)cc1` (configuration not stated), the inhibition in vivo at 10 mg/kg in the experiment with Rattus norvegicus [1] was found to be 6%. Besides, in the experiment on Rattus norvegicus [2], the Activity amounted to 31%.
On to `CCC(O)(CC)CCCOc1ccc2c(c1)OCC(c1ccc(OC)cc1)C2` (configuration not stated), for which the inhibition in vivo at 10 mg/kg in the experiment on Rattus norvegicus [1] was 3%. For the same molecule, in the experiment with Rattus norvegicus [2], the Activity is reported as 48%.
On the same counts, the results for `C=C1CC[C@H](O)C/C1=C/C=C1\CCC[C@]2(C)[C@@H]([C@H](C)CCCC(C)C)CC[C@@H]12` [CHOLECALCIFEROL] are 39% and 82%.
Take `C#C[C@]1(O)CC[C@H]2[C@@H]3CCc4cc(O)ccc4[C@H]3CC[C@@]21C` [ETHINYL ESTRADIOL]: the figures for the Activity with Rattus norvegicus [3] and with Rattus norvegicus [2] were 85 mg and 480%, respectively.
In the case of `COc1ccc2c(c1)OC(C)(C)C(c1ccccc1)C2c1ccc(OCCN2CCCC2)cc1` (configuration not stated) [ORMELOXIFENE], in the experiment on Rattus norvegicus [1], the inhibition in vivo at 10 mg/kg stood at 67%. The Activity in the experiment on Rattus norvegicus [2] worked out at 156%.
On the same counts, the results for `O=C(c1ccc(OCCN2CCCCC2)cc1)c1c(-c2ccc(O)cc2)sc2cc(O)ccc12` [RALOXIFENE] are 57% and 90%.

The values are drawn from ChEMBL document CHEMBL3046715, “In vivo evaluation of substituted 3-phenyl,7-methoxy-benzopyrans as modified estrogens” (2010).
